Measurements reported in ChEMBL document CHEMBL5634124, “Discovery and optimization of indirubin derivatives as novel ferroptosis inducers for the treatment of colon cancer” (Eur J Med Chem, 2023).

Test system: HCT-116
Test: Cytotoxicity against human HCT-116 cells assessed as inhibition of cell viability incubated for 48 hrs by CCK8 assay
Assay type: functional, cell-based
Settings: HCT-116, 48 h

| Compound | IC50 |
| --- | --- |
| O=C1Nc2ccccc2/C1=C1/Nc2ccc(C(=O)NCCC3CCN(C(=O)CCl)CC3)cc2C1=O | 720 nM |
| O=C1Nc2ccccc2/C1=C1/Nc2ccc(C(=O)NCCN3CCN(C(=O)CCl)CC3)cc2C1=O | 2270 nM |
| O=C(CCl)CCCCCC(=O)c1ccc2c(c1)C(=O)/C(=C1/C(=O)Nc3ccccc31)N2 | 2180 nM |
| C#CC(=O)CCCCC(=O)c1ccc2c(c1)C(=O)/C(=C1/C(=O)Nc3ccccc31)N2 | 3000 nM |
| CC(=O)N1CCC(NC(=O)c2ccc3c(c2)C(=O)/C(=C2/C(=O)Nc4ccccc42)N3)CC1 | 4050 nM |
| C=CC(=O)N1CCN(CCNC(=O)c2ccc3c(c2)C(=O)/C(=C2/C(=O)Nc4ccccc42)N3)CC1 | 17500 nM |
| O=C1Nc2ccccc2/C1=C1/Nc2ccc(C(=O)Nc3ccc(C4CCN(C(=O)CCl)CC4)cc3)cc2C1=O | > 20000 nM |
| C#CC(=O)N1CCN(c2ccc(NC(=O)c3ccc4c(c3)C(=O)/C(=C3/C(=O)Nc5ccccc53)N4)cc2)CC1 | > 20000 nM |
| C=CC(=O)CCCC(=O)c1ccc2c(c1)C(=O)/C(=C1/C(=O)Nc3ccccc31)N2 | > 20000 nM |
| C#CC(=O)CCCC(=O)c1ccc2c(c1)C(=O)/C(=C1/C(=O)Nc3ccccc31)N2 | 7400 nM |
| C=CC(=O)N1CCN(NC(=O)c2ccc3c(c2)C(=O)/C(=C2/C(=O)Nc4ccccc42)N3)CC1 | 12400 nM |
| O=C(CCl)CCCCC(=O)c1ccc2c(c1)C(=O)/C(=C1/C(=O)Nc3ccccc31)N2 | 1720 nM |
| C#CC(=O)CCC(=O)c1ccc2c(c1)C(=O)/C(=C1/C(=O)Nc3ccccc31)N2 | > 20000 nM |
| C#CC(=O)N1CCC(CCNC(=O)c2ccc3c(c2)C(=O)/C(=C2/C(=O)Nc4ccccc42)N3)CC1 | 1850 nM |
| O=C1Nc2ccccc2/C1=C1/Nc2ccc(C(=O)NC3CCN(C(=O)CCl)CC3)cc2C1=O | 1810 nM |
| O=C(CCl)CCC(=O)c1ccc2c(c1)C(=O)/C(=C1/C(=O)Nc3ccccc31)N2 | > 20000 nM |
